One series concerns TC1 ES cells. Nature of the series: Whole cell histone modification levels, Western blot densitometry. The series is classed as cell-based. As to conditions: 48 hrs with compound, normalized over total Histone H4. As to the method: The ability to reduce global H3K9-me2 and -me3 levels with the novel HP1 inhibitors was previously examined (see FIG. 20). […] Oct4-GFP will be measured by flow cytometry, H3K9me3 enrichment by ChIP, and DNA methylation levels by bisulfite sequencing at 2, 4, and 6 days post RA addition output measurements. Expression and chromatin modifications will also be examined at other RA regulated genes such as […] using GAPDH as a control.
Referring to FIG. 20, TC1 ES cells were incubated 48 hrs with compound. Histones marks were measured by Western blot densitometry with the indicated antibody. The results were normalized over the total Histone H4 as a percentage of untreated controls.
For orientation: In western blotting, separated proteins are transferred to a membrane and probed.

The subject of another series is CiA:Oct4 N118/N163 cells. The series is described as follows: Minus rapamycin counter screen for toxicity and cell differentiation. The series is classed as cell-based. To be noted: 10 μM compound, no rapamycin, 48 hrs. Here is the method:
Day 0, CiA:Oct4 N118/163 cells were grown in ES media and seeded at a density of 10,000 cells per well (100,000 cells/mL) into gelatin coated 96 well plates. Day 1, media was aspirated and replaced with […] fresh ES media containing +/−6 nM rapamycin and 10 μM dilution of compounds from the EpiG compound set. Day 2, 100 μL fresh ES media containing +/−6 nM rapamycin and 10 μM dilution of compounds from the EpiG compound set was added as on Day 1. Day 3, the media was aspirated out of the wells and the cells were washed with PBS and trypsinized using 0.25% trypsin-EDTA. Trypsin was quenched with serum. Cells were resuspended by pipetting to prepare the plates for flow cytometry analysis.
Flow cytometry was performed using an Intellicyt iQue Screener and analyzed with FlowJo software. Cell populations were gated based on forward and side scatter area. Single cell populations were isolated using forward scatter area by forward scatter height gating. Dead or dying cells that equally fluoresced in the GFP and APC channels upon excitation with 488 nm laser were omitted as autofluorescent, and the remaining cells were gated into GFP (−) and GFP (+) populations. […] Statistics were performed using standard T-test analysis.
The CiA:Oct4 N118/N163 recruitment system also functions as an internal counter screen for toxicity and cell differentiation in the absence of rapamycin recruited csHP1α. […]
For orientation: The purpose of a counterscreen is to sort out artefacts and off-target activity.

In another series the target is T1, GLP (Homo sapiens, UniProt Q9H9B1).
T1 sequence (Q9H9B1 1-1298): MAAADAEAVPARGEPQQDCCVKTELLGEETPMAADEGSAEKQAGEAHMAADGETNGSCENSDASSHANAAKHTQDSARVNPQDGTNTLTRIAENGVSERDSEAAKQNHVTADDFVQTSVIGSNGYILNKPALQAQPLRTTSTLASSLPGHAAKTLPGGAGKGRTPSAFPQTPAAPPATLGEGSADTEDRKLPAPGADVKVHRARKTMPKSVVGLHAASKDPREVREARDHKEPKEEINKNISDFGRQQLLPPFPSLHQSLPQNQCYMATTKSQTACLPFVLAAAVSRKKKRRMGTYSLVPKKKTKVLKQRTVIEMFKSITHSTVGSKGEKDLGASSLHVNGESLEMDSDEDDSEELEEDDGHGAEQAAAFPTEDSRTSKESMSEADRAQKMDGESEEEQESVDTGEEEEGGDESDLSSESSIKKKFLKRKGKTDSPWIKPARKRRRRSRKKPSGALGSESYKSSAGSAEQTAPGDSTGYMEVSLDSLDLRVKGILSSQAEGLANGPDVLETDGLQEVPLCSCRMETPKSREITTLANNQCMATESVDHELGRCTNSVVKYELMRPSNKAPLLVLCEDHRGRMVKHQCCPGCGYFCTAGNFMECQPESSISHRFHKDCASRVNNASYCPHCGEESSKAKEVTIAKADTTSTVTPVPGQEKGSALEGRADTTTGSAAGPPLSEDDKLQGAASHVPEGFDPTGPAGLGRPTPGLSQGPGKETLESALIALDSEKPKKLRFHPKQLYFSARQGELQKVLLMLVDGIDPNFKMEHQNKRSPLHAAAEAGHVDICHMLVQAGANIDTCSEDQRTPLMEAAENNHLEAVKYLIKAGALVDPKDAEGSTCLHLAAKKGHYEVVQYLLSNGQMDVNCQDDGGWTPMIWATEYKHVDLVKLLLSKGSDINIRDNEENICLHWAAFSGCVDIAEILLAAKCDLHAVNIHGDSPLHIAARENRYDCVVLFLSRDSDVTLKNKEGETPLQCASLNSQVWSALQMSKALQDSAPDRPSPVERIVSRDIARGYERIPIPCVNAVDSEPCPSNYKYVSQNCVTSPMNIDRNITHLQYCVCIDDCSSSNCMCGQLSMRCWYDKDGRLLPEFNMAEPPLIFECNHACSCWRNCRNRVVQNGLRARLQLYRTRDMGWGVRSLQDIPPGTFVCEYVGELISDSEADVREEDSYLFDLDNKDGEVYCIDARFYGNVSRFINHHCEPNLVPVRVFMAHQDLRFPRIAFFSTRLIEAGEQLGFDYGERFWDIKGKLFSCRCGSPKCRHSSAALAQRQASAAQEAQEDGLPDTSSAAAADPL
Nature of the series: In vitro activity against GLP. The series is classed as biochemical. To be noted: data not shown.

Structures can show the parent of a compound that is named as a salt.

With `COc1cc2nc(N3CCCC3)nc(N[C@H]3CCCNC3)c2cc1OC` [compound 1, (S)-6,7-Dimethoxy-N-(Piperidin-3-yl)-2-(Pyrrolidin-1-yl)Quinazolin-4-Amine Trifluoroacetic Acid Salt], the “Bulk di- and tri-H3K9 methylation” value with TC1 ES cells was “significantly block”. Moreover, the “GFP positive population levels without csHP1α recruitment” value in the series with CiA:Oct4 N118/N163 cells is “did not decrease GFP positive population levels”. Moreover, at GLP, the “Activity against GLP in vitro” value is reported as “no detectable activity”.
